Source: US9346815B2, “5-chloro-2-difluoromethoxyphenyl pyrazolopyrimidine compounds, compositions and methods of use thereof” (Genentech, Inc., priority 2014, dated 2016)

Tests used:
[1] = target: isolated recombinant JAK1 kinase domain (Homo sapiens (Human), UniProt P23458); test: JAK1 enzyme assay (Caliper LabChip, peptide phosphorylation); format: biochemical; conditions: isolated recombinant JAK1 kinase domain, 25 μM ATP
[2] = target: isolated recombinant JAK2 kinase domain (Homo sapiens (Human), UniProt O60674); test: JAK2 enzyme assay (Caliper LabChip, peptide phosphorylation); format: biochemical; conditions: 25 μM ATP
Sequence of isolated recombinant JAK2 kinase domain (O60674 849-1124): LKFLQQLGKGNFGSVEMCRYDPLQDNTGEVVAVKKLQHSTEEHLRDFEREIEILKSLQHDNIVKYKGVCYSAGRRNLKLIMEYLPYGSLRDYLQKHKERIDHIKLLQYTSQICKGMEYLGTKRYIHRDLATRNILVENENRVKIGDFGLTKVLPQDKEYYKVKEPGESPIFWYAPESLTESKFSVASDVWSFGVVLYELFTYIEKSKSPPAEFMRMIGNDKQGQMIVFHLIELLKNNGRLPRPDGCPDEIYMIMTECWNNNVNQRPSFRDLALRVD

Sequence of isolated recombinant JAK1 kinase domain (P23458 875-1153): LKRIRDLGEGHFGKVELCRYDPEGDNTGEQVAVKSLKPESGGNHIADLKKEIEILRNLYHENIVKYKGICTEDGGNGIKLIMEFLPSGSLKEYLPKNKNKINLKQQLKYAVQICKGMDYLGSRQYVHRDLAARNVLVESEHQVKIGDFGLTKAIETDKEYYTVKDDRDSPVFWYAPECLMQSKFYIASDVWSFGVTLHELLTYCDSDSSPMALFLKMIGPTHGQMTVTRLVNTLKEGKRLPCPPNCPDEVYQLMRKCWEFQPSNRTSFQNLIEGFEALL

Ki [1] [nM]	Ki [2] [nM]	Compound
0.65	0.32	Nc1nn2cccnc2c1C(=O)Nc1cn(CC(=O)N2CC3CNCC3C2)nc1-c1cc(Cl)ccc1OC(F)F (centres unmarked) [Example 10, N-[1-[2-(2,3,3a,4,6,6a-hexahydro-1H-pyrrolo[3,4-c]pyrrol-5-yl)-2-oxo-ethyl]-3-[5-chloro-2-(difluoromethoxy)phenyl]pyrazol-4-yl]-2-amino-pyrazolo[1,5-a]pyrimidine-3-carboxamide]
0.7	1.69	CN1CCC2CN(C(=O)Cn3cc(NC(=O)c4cnn5cccnc45)c(-c4cc(Cl)ccc4OC(F)F)n3)CC2C1 (centres unmarked) [Example 30, N-[3-[5-chloro-2-(difluoromethoxy)phenyl]-1-[2-(5-methyl-3,3a,4,6,7,7a-hexahydro-1H-pyrrolo[3,4-c]pyridin-2-yl)-2-oxo-ethyl]pyrazol-4-yl]pyrazolo[1,5-a]pyrimidine-3-carboxamide]
0.47	0.46	CS(=O)(=O)N1CCC(CN2C[C@@H]3CN(C(=O)Cn4cc(NC(=O)c5cnn6cccnc56)c(-c5cc(Cl)ccc5OC(F)F)n4)C[C@@H]3C2)CC1 [Example 34, N-[1-[2-[(3aR,6aS)-2-[(1-methylsulfonyl-4-piperidyl)methyl]-1,3,3a,4,6,6a-hexahydropyrrolo[3,4-c]pyrrol-5-yl]-2-oxo-ethyl]-3-[5-chloro-2-(difluoromethoxy)phenyl]pyrazol-4-yl]pyrazolo[1,5-a]pyrimidine-3-carboxamide]
0.66	0.84	CN(C)C1CN(C(=O)Cn2cc(NC(=O)c3cnn4cccnc34)c(-c3cc(Cl)ccc3OC(F)F)n2)C1 [Example 64, N-[3-[5-chloro-2-(difluoromethoxy)phenyl]-1-[2-[3-(dimethylamino)azetidin-1-yl]-2-oxo-ethyl]pyrazol-4-yl]pyrazolo[1,5-a]pyrimidine-3-carboxamide]
1.06	4.66	CN(C)C[C@H]1CCCN(C(=O)Cn2cc(NC(=O)c3cnn4cccnc34)c(-c3cc(Cl)ccc3OC(F)F)n2)C1 [Example 71, N-[3-[5-chloro-2-(difluoromethoxy)phenyl]-1-[2-[(3R)-3-[(dimethylamino)methyl]-1-piperidyl]-2-oxo-ethyl]pyrazol-4-yl]pyrazolo[1,5-a]pyrimidine-3-carboxamide]
0.52	–	CN(C)C1CN(C(=O)Cn2cc(NC(=O)c3c(N)nn4cccnc34)c(-c3cc(Cl)ccc3OC(F)F)n2)C1 [Example 138, 2-amino-N-[3-[5-chloro-2-(difluoromethoxy)phenyl]-1-[2-[3-(dimethylamino)azetidin-1-yl]-2-oxo-ethyl]pyrazol-4-yl]pyrazolo[1,5-a]pyrimidine-3-carboxamide]
1.33	–	CN1CCC2(CC1)CN(C(=O)Cn1cc(NC(=O)c3c(N)nn4cccnc34)c(-c3cc(Cl)ccc3OC(F)F)n1)CCO2 [Example 215, 2-amino-N-[3-[5-chloro-2-(difluoromethoxy)phenyl]-1-[2-(9-methyl-1-oxa-4,9-diazaspiro[5.5]undecan-4-yl)-2-oxo-ethyl]pyrazol-4-yl]pyrazolo[1,5-a]pyrimidine-3-carboxamide]
0.83	–	C[C@@H]1CN(C(=O)Cn2cc(NC(=O)c3c(N)nn4cccnc34)c(-c3cc(Cl)ccc3OC(F)F)n2)C[C@H](C)N1 [Example 251, 2-amino-N-[3-[5-chloro-2-(difluoromethoxy)phenyl]-1-[2-[(3R,5S)-3,5-dimethylpiperazin-1-yl]-2-oxo-ethyl]pyrazol-4-yl]pyrazolo[1,5-a]pyrimidine-3-carboxamide]
–	0.2	Nc1nn2cccnc2c1C(=O)Nc1cn(CC(=O)N2CC[C@H](O)C2)nc1-c1cc(Cl)ccc1OC(F)F [Example 270, 2-amino-N-[3-[5-chloro-2-(difluoromethoxy)phenyl]-1-[2-[(3S)-3-hydroxypyrrolidin-1-yl]-2-oxo-ethyl]pyrazol-4-yl]pyrazolo[1,5-a]pyrimidine-3-carboxamide]
